This is an account of results in the supplement of paper PMC6470124.

Series [1] is described as follows: absolute recovery over vacuum-assisted evaporative concentration; higher = better recovery. The note with it: enrichment method: VEC. In short, it runs like this: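 Absolute recovery was calculated as (response ratio pre − unspiked)/(post − unspiked) × 100 from averages of ≥ 2 replicates. Influent (6 mL), effluent (15 mL), and surface and nanopure water (60 mL) samples were spiked with standards before concentration, after concentration, or not at all, at 200 ng/L for nanopure and surface water or 1000 ng/L for wastewater, with class- and compound-specific adjustments. Samples were evaporated at 55 °C and 20 mbar to about 0.3 mL, made up to 0.4 mL and centrifuged, then internal standards were added before LC-HRMS/MS analysis.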

Series [2] is described as follows: absolute recovery over mixed-bed multilayer solid-phase extraction; higher = better recovery. The note with it: enrichment method: SPE. In short, it runs like this: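 Wastewater (100–250 mL, adjusted to pH 6.5 and glass-fibre filtered) or 1000 mL unfiltered nanopure water was loaded on a three-layer mixed-bed cartridge and eluted with basic then acidic ethyl acetate/methanol. Standards were spiked before extraction, after it, or not at all, at 200 ng/L (water) or 1000 ng/L (wastewater), with class exceptions. Internal standards were added afterwards, then LC-HRMS/MS ran in both ionisation modes. Absolute recovery compares background-corrected response ratios of pre- versus post-spiked samples, averaged over at least two replicates.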

Series [3] can be described thus: LC retention time (Atlantis T3, 5-95% MeOH gradient, 0.1% formic acid); higher = more retained / less polar. In short, it runs like this: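 Retention times were recorded for reference standards (purity ≥ 95%) on a polar reversed-phase C18 column (Atlantis T3, 3 × 150 mm, 3 μm) at 0.3 mL/min. Elution used water and methanol, each with 0.1% formic acid, in a gradient from 5 to 95% methanol over 17.5 min. Detection was by high-resolution tandem mass spectrometry on a QExactive Plus, with positive and negative electrospray in separate runs. Peaks were found and integrated in TraceFinder (5 ppm tolerance, at least three points per peak) and then checked by hand.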

Each structure is given as a SMILES string.

On to `OC(Cc1ccccc1Cl)(Cn1cncn1)C1(Cl)CC1` (stereo not given) [Prothioconazole-desethio], for which the absolute recovery in series [1] (wastewater effluent) came out at 141%; in series [1] (wastewater influent), 128%; in series [2] (nanopure water) it was 109%; in series [2] (surface water), 86.3%; in series [2] (wastewater effluent), 104%; in series [2] (wastewater influent), 104%. The same compound returned an LC retention time in series [3] of 20.6 min.
For the compound `OC(Cc1ccccc1Cl)(Cn1[nH]cnc1=S)C1(Cl)CC1` (stereo not given) [Prothioconazole], the absolute recovery amounted to 96.6% in series [1] (wastewater effluent); 39.8% in series [1] (wastewater influent); 94.5% in series [2] (surface water); 41.8% in series [2] (wastewater effluent); 14.7% in series [2] (wastewater influent). Further, the LC retention time in series [3] amounted to 21.2 min.
Consider `CC1=NNC(=O)N(N=Cc2cccnc2)C1` [Pymetrozin], for which the absolute recovery in series [1] (wastewater effluent) was found to be 107%; in series [1] (wastewater influent) it was 110%; in series [2] (nanopure water), 118%; in series [2] (surface water), 112%; in series [2] (wastewater effluent), 106%; in series [2] (wastewater influent) it was 97%. Also, the LC retention time in series [3] stood at 8.65 min.
`COC(=O)N(OC)c1ccccc1COc1ccn(-c2ccc(Cl)cc2)n1` [Pyraclostrobin]: the absolute recovery in series [1] (wastewater effluent) came to 87.5%; in series [1] (wastewater influent) it was 90.7%; in series [2] (nanopure water), 101%; in series [2] (surface water), 98%; in series [2] (wastewater effluent), 91.5%; in series [2] (wastewater influent), 99.3%. The compound also displayed an LC retention time in series [3] of 21.1 min.
For `COc1ccc(CN(CC[NH+](C)C)c2ccccn2)cc1` [Pyrilamine], the absolute recovery worked out at 94% in series [1] (wastewater effluent); 99.9% in series [1] (wastewater influent); 83.7% in series [2] (nanopure water); 87% in series [2] (surface water); 87.3% in series [2] (wastewater effluent); 88.2% in series [2] (wastewater influent). In addition, the LC retention time in series [3] was found to be 18.4 min.
`Cc1cc(C)nc(Nc2ccccc2)n1` [Pyrimethanil]: the absolute recovery came out at 88.8% in series [1] (wastewater effluent); 86.4% in series [1] (wastewater influent); 89.2% in series [2] (nanopure water); 91.1% in series [2] (surface water); 91.4% in series [2] (wastewater effluent); 90.3% in series [2] (wastewater influent). In addition, the LC retention time in series [3] is 18.3 min.
Turning to `Cc1cc(O)nc(C(C)C)n1` [Pyrimidinol], the absolute recovery in series [1] (wastewater effluent) was found to be 108%; in series [1] (wastewater influent), 108%; in series [2] (nanopure water), 76.8%; in series [2] (surface water) it was 81.4%; in series [2] (wastewater effluent) it was 85.3%; in series [2] (wastewater influent), 96.4%. In series [3], the LC retention time was found to be 11.8 min.
For the compound `COc1cc(OC)n2nc([N-]S(=O)(=O)c3c(C(F)(F)F)ccnc3OC)nc2n1` [Pyroxsulam], the absolute recovery was 103% in series [1] (wastewater effluent); 103% in series [1] (wastewater influent); 100% in series [2] (nanopure water); 97.7% in series [2] (surface water); 96.3% in series [2] (wastewater effluent); 84.9% in series [2] (wastewater influent). In series [3], the LC retention time stood at 16.7 min.
With `NC1=C(Cl)C(=O)c2ccccc2C1=O` [Quinoclamine], the absolute recovery was determined as 97% in series [1] (wastewater effluent); 106% in series [1] (wastewater influent); 93.9% in series [2] (nanopure water); 96.8% in series [2] (surface water); 92.6% in series [2] (wastewater effluent); 88% in series [2] (wastewater influent). The compound also yielded an LC retention time in series [3] of 16.8 min.
Take `Fc1ccc(Oc2ccnc3cc(Cl)cc(Cl)c23)cc1` [Quinoxyfen]: the absolute recovery in series [1] (wastewater effluent) amounted to 69.8%; in series [2] (nanopure water), 63.7%; in series [2] (surface water), 76.4%; in series [2] (wastewater effluent) it was 78.1%; in series [2] (wastewater influent), 53.1%. Also, in series [3], the LC retention time was determined as 22.9 min.
In the case of `CNC(=C[N+](=O)[O-])NCCSCc1ccc(C[N+](C)(C)[O-])o1` [Ranitidin-N-oxid], the absolute recovery in series [1] (wastewater effluent) was 103%; in series [1] (wastewater influent), 92.2%; in series [2] (nanopure water), 50.9%; in series [2] (surface water) it was 69.4%; in series [2] (wastewater effluent), 63.7%; in series [2] (wastewater influent), 73.7%. Further, the LC retention time in series [3] was 8.99 min.
`CNC(=C[N+](=O)[O-])NCCS(=O)Cc1ccc(C[NH+](C)C)o1` (stereo not given) [Ranitidin-S-oxid]: the absolute recovery in series [1] (wastewater effluent) was 83.5%; in series [1] (wastewater influent), 142%; in series [2] (nanopure water), 72.3%; in series [2] (surface water), 74.2%; in series [2] (wastewater effluent) it was 67.2%; in series [2] (wastewater influent) it was 81.4%. The compound also yielded an LC retention time in series [3] of 6.08 min.
Turning to `CCOc1cc(CC(=O)NC(CC(C)C)c2ccccc2N2CCCCC2)ccc1C(=O)[O-]` (stereo not given) [Repaglinide], the absolute recovery in series [1] (wastewater effluent) is 120%; in series [1] (wastewater influent) it was 95.3%; in series [2] (nanopure water), 95.4%; in series [2] (surface water) it was 98.7%; in series [2] (wastewater effluent), 102%; in series [2] (wastewater influent), 94.8%. In series [3], this compound came in with an LC retention time of 19.3 min.
Take `COC(=O)C1C2CC3c4[nH]c5cc(OC)ccc5c4CC[NH+]3CC2CC(OC(=O)c2cc(OC)c(OC)c(OC)c2)C1OC` (stereo not given) [Reserpin]: the absolute recovery in series [1] (wastewater effluent) was 21.6%; in series [1] (wastewater influent), 64.3%; in series [2] (nanopure water), 64.2%; in series [2] (surface water), 81.9%; in series [2] (wastewater effluent), 80.1%; in series [2] (wastewater influent), 64.2%. Besides, the LC retention time in series [3] was 15.9 min.
As for `NC(=O)c1ncn(C2OC(CO)C(O)C2O)n1` (stereo not given) [Ribavirin], the absolute recovery in series [1] (wastewater effluent) was determined as 87%; in series [1] (wastewater influent), 67.6%; in series [2] (nanopure water) it was 33.5%; in series [2] (surface water), 30.5%; in series [2] (wastewater effluent), 33.2%; in series [2] (wastewater influent) it was 37%. In series [3], this compound displayed an LC retention time of 4.79 min.
In the case of `CC([NH3+])C12CC3CC(CC(C3)C1)C2` (stereo not given) [Rimantadin], the absolute recovery amounted to 105% in series [1] (wastewater effluent); 112% in series [1] (wastewater influent); 71.9% in series [2] (nanopure water); 76.1% in series [2] (surface water); 72.9% in series [2] (wastewater effluent); 71.4% in series [2] (wastewater influent). This compound also yielded an LC retention time in series [3] of 14.6 min.
Turning to `CCS(=O)(=O)c1cccnc1S(=O)(=O)[N-]C(=O)Nc1nc(OC)cc(OC)n1` [Rimsulfuron], the absolute recovery in series [1] (wastewater effluent) came out at 93.8%; in series [1] (wastewater influent), 85%; in series [2] (nanopure water), 127%; in series [2] (surface water) it was 124%; in series [2] (wastewater effluent), 95%; in series [2] (wastewater influent) it was 95.2%. In series [3], this compound returned an LC retention time of 17.6 min.
Turning to `Cc1nc2n(c(=O)c1CC[NH+]1CCC(c3noc4cc(F)ccc34)CC1)CCCC2` [Risperidone], the absolute recovery in series [1] (wastewater effluent) is 98.7%; in series [1] (wastewater influent), 102%; in series [2] (nanopure water), 90.1%; in series [2] (surface water), 98.4%; in series [2] (wastewater effluent) it was 93.3%; in series [2] (wastewater influent) it was 82%. In series [3], this compound had an LC retention time of 13.3 min.
Take `O=C([O-])C(c1ccccc1)C1CCCC[NH2+]1` (stereo not given) [Ritalinic-acid]: the absolute recovery in series [1] (wastewater effluent) is 110%; in series [1] (wastewater influent), 104%; in series [2] (nanopure water) it was 104%; in series [2] (surface water), 77.4%; in series [2] (wastewater effluent), 88.9%; in series [2] (wastewater influent) it was 79.8%. In addition, the LC retention time in series [3] was found to be 12.3 min.
On to `CC(C)c1nc(CN(C)C(=O)NC(C(=O)NC(Cc2ccccc2)CC(O)C(Cc2ccccc2)NC(=O)OCc2cncs2)C(C)C)cs1` (stereo not given) [Ritonavir], for which the absolute recovery in series [1] (wastewater effluent) stood at 106%; in series [1] (wastewater influent), 99.5%; in series [2] (nanopure water) it was 85.2%; in series [2] (surface water), 92.4%; in series [2] (wastewater effluent), 86.9%; in series [2] (wastewater influent) it was 87.6%. The LC retention time in series [3] stood at 21 min.
Consider `CCN(C)C(=O)Oc1cccc(C(C)[NH+](C)C)c1` (stereo not given) [Rivastigmin], for which the absolute recovery turned out to be 102% in series [1] (wastewater effluent); 105% in series [1] (wastewater influent); 90.4% in series [2] (nanopure water); 94.7% in series [2] (surface water); 90.6% in series [2] (wastewater effluent); 98.8% in series [2] (wastewater influent). In series [3], this compound gave an LC retention time of 12.2 min.
